# Data taken from US20160037782A1, “COMBINATIONS OF ANTIFUNGAL COMPOUNDS AND TEA TREE OIL” (priority 2011, published 2016).
# What was measured:
# [1] = tested on: coffee plant rust; assay: Coffee plant rust: compositions applied to coffee plant leaves, degree and severity of infection observed later (Example 1); format: in vivo, Hemileia vastatrix; conditions: applied alone
# Experimental: The effect of application of a TTO-containing composition (Timorex Gold®), alone and in combination with tebuconazole (simultaneous and in alternation), on coffee plant rust, was tested, by applying the compositions to coffee plant leaves and observing the degree and severity of infection later.
# [2] = tested on: rust in green onions; assay: Control of rust in organically grown green onions, field spray trial (Example 3); format: in vivo, Puccinia alli; conditions: 2.5 g/l
# Experimental: (§1) Treatments were applied in a randomized complete block, with 5 replications per treatment. Plot size in each instance was of 6 m length, containing 20 plants. Fungicidal treatment was applied using backpack sprayer equipped with a mist blower (STHIL 340) to spray a volume of 300 liter/ha. Disease severity was evaluated by determining the leaf area covered with rust (disease severity) on each of 20 leaves randomly selected per each replicate. To analyze the results, an arc-sin transformation was performed on the raw data, and analysis of variance (ANOVA) using the SAS GLM procedure was applied to the transformed data. The Tukey-Kramer Test was applied to determine whether differences between treatments were significant. In the tables, “a”, “b” and “c”, refer to differences in statistical analysis that are familiar to users of the Tukey-Kramer test.
# In a manner similar to that in Example 2, the effect of TG and the copper hydroxide solution were tested on organically grown green onions, by application at a rate of 500 l/ha.
# [3] = tested on: rust in garlic plants; assay: Control of rust in organically grown garlic plants, field spray trial (Example 2); format: in vivo, Puccinia alli; conditions: 0.25%
# Experimental: Organically grown garlic plants were treated with a 53.8% copper hydroxide solution, Timorex Gold, or a mixture of the two. The plants were sprayed six times, on the first day of the trial and then approximately every six days thereafter. Observations were made on days 1 (before spraying), 29 and 40 of the trial. The results are shown in the table below; d.a.a.=days after application; numbers are presented as % of disease severity on leaves. The effectiveness may have been comprised by the relatively large amount of rain that fell during the trial.
# as §1
# [4] = 4th evaluation, 1 day after 5th treatment
# [5] = 5th evaluation, on day of 7th treatment
# [6] = 6th evaluation, 7 days after 7th treatment
# [7] = second evaluation, 2 days after second treatment
# [8] = third evaluation, on day of fourth treatment
SMILES,retention of leaves by the plants [1],severity of the disease ([1]; coffee plants),"% area infected by rust [2, 4] [b %]","Efficacy of treatment, % [2, 4] [%]","% area infected by rust [2, 5] [b %]","Efficacy of treatment, % [2, 5] [%]","% area infected by rust [2, 6] [b %]","Efficacy of treatment, % [2, 6] [%]","% area infected by rust ([2]; first evaluation, before treatment) [a %]","% area infected by rust [2, 7] [ab %]","Efficacy of treatment, % [2, 7] [%]","% area infected by rust [2, 8] [b %]","Efficacy of treatment, % [2, 8] [%]",40 d.a.a. % green relative to control ([3]; 40 d.a.a.) [%],40 d.a.a.: % green ([3]; 40 d.a.a.) [a %],Day 0 % of infected area ([3]; baseline before spraying) [a %],Effectiveness in eradicating relative to control ([3]; six days after fifth application),"% of infected area ([3]; six days after fifth application, 300 liter/ha) [b %]"
CC(C)(C)C(O)(CCc1ccc(Cl)cc1)Cn1cncn1 (stereo not drawn) [tebuconazole],higher retention of leaves,overall lower severity of the disease,,,,,,,,,,,,,,,,
"[Cu+2].[OH-].[OH-] [Copper hydroxide, copper hydroxide]",,,8.5,70.3,12.5,76.9,18.7,75.1,0.3,1.8,62.1,2.5,79.2,206.1,60.0,0.2,53.0,27.0
